In patent US20220257777A1, “HSP90-BINDING CONJUGATES AND COMBINATION THERAPIES THEREOF” (TVA (ABC), LLC, priority 2019, published 2022):
Where two headings read alike, the source gives them in different places. Marks after values point to notes of the source that are not given here.

Columns and labels:
[1] = Phase 1/2a study, maximum tolerated dose and adverse events; format: in vivo, human
From the text: (§1) In a Phase 1/2a study of Conjugate 1, patients received weekly Conjugate 1 treatment for 3 of 4 weeks in a 28-day cycle. The patients have histologically or cytologically confirmed advanced solid tumors. Their tumor types included anus, breast, cholangiocarcinoma, colon, Ewing sarcoma, liver, lung, neuroendocrine (unknown primary), ovary, pancreas, salivary gland, and sarcoma. They have received one or more prior lines of anticancer therapy. The patients received flat dosings or dosings based on body surface area (BSA). The doses included 30 mg, 60 mg, 120 mg, 240 mg, 360 mg, 175 mg/m^2, and 200 mg/m^2. […] BSA-based dosing will be used for future studies.
AEs are well-managed with dose modification.

[2] = test system: H1975 (NSCLC) mouse xenograft; experiment: Efficacy in H1975 (NSCLC) mouse xenograft model; format: in vivo
[3] = Levels of Conjugate 1 and SN-38 in patient tumor biopsy and plasma at 24 h; format: in vivo, human
Description: A pancreatic cancer patient received Conjugate 1 at a dose of 150 mg/m^2 and underwent a tumor biopsy to determine Conjugate 1 and SN-38 levels in tumor and plasma. Samples were taken 24 h after the second dose of 150 mg/m^2 Conjugate 1 from a liver metastasis.
Conjugate 1 and SN-38 levels in tumor are much higher than the levels in plasma.

[4] = Tumor exposure of Conjugate 1 and SN-38 in H1975 mouse xenograft model at 24 h; format: in vivo; details: for concentration at 24 h: mouse, in vivo; for SN-38 in tumor at 24 h: H1975 model
[5] = test system: advanced solid tumors; experiment: Phase 1/2a study, tumor response; format: in vivo, human
From the text: as §1
120-360 mg flat dose and 175 mg/m2 BSA dose were associated with stable disease that was maintained for ≥12 weeks.

[6] = Phase 1/2a study, plasma pharmacokinetics of Conjugate 1 and SN-38; format: in vivo, human
From the text: as §1
To study pharmacokinetics (PK) profile, multiple plasma samples were collected to measure Conjugate 1 and SN-38 concentrations. […] Elimination half-life was ˜10 hours across all dose ranges. Free SN-38 levels were generally low. AUC is <2% of the conjugate (Conjugate 1) AUC.

[7] = cited from earlier work; for Ratio of tumor level/plasma level: after Onivyde treatment at 72 h; for Amount in Tumor: patient biopsies after Onivyde treatment at 72 h (13 patients); for Amount in Plasma: patients after Onivyde treatment at 72 h (13 patients)
[8] = patients dosed with Conjugate 1, plasma

CCc1c2c(nc3ccc(OC(=O)N4CCC(CCn5ccc6cc(-n7c(O)nnc7-c7cc(C(C)C)c(O)cc7O)ccc65)CC4)cc13)-c1cc3c(c(=O)n1C2)COC(=O)[C@]3(O)CC [Conjugate 1, (S)-4,11-diethyl-4-hydroxy-3,14-dioxo-3,4,12,14-tetrahydro-1H-pyrano[3′,4′:6,7]indolizino[1,2-b]quinolin-9-yl 4-(2-(5-(3-(2,4-dihydroxy-5-isopropylphenyl)-5-hydroxy-4H-1,2,4-triazol-4-yl)-1H-indol-1-yl)ethyl)piperidine-1-carboxylate]
Maximum tolerated dose (MTD), monotherapy ([1]; patients with advanced solid tumors, weekly for 3 of 4 weeks in a 28-day cycle): 175 mg/m^2 | Most common AEs ([1]; patients, Phase 1): nausea, fatigue, diarrhea, vomiting and alopecia | Overall safety / adverse event profile ([1]; patients, Phase 1): safe and has an expected adverse (AE) event profile | Efficacy in the xenograft model ([2]; weekly dose of 150 mg/kg): tumor regression | Efficacy in the xenograft model ([2]; weekly doses of 72 mg/kg and 100 mg/kg): significant efficacy | SN-38 tumor level relative to SN-38 tumor level of patients who received Onivyde ([3]; human, in vivo, 24 h): about 3.5 fold | concentration at 24 h ([4]; 50 mg/kg): 163 nM | concentration at 24 h ([4]; 100 mg/kg): 149 nM | concentration at 24 h ([4]; 150 mg/kg): 4990 nM | Time stable disease was maintained ([5]; 120-360 mg flat dose and 175 mg/m2 BSA dose): ≥ 12 weeks | Patients achieving partial response (PR; reduction of tumor size by 30% or more) ([5]; of the 17 patients who received Conjugate 1 treatment): one | half-life ([6]; human, in vivo, Elimination half-life): ~10 h | Dose proportionality of PK ([6]; patients, 30 mg to 200 mg/m^2): non-linear PK at lower doses, but greater proportionality was observed at higher doses | Linker stability in circulation ([6]; patients, PK analyses): stable in circulation

CCc1c2c(nc3ccc(OC(=O)N4CCC(N5CCCCC5)CC4)cc13)-c1cc3c(c(=O)n1C2)COC(=O)[C@]3(O)CC [Irinotecan]
Ratio of tumor level/plasma level [7]: About 0.5 | Ratio of tumor level/plasma level ([7]; listed as irinotecan): about ½ | Amount in Tumor [7]: 4043 nM | Amount in Plasma [7]: 7.921 µM

CCc1c2c(nc3ccc(O)cc13)-c1cc3c(c(=O)n1C2)COC(=O)[C@]3(O)CC [SN-38, reference compound]
Amount in Plasma ([3]; at 24 h, average of 5 patients dosed at 175 mg/m^2 Conjugate 1): 25.5* nM | Ratio of tumor level/plasma level ([3]; at 24 h, tumor at 150 mg/m^2, plasma at 175 mg/m^2 Conjugate 1): About 3.4 | Amount in Tumor ([3]; pancreatic cancer patient, liver metastasis biopsy, 24 h after the second dose of 150 mg/m^2 Conjugate 1): 86.6 nM | SN-38 in tumor at 24 h ([4]; Conjugate 1 50 mg/kg): 98 nM | SN-38 in tumor at 24 h ([4]; Conjugate 1 100 mg/kg): 18.4 nM | SN-38 in tumor at 24 h ([4]; Conjugate 1 150 mg/kg): 221 nM | Ratio of tumor level/plasma level [7]: About 4.2 | Amount in Tumor [7]: 24.5 nM | Amount in Plasma [7]: 0.0059 µM | Free SN-38 AUC as share of the conjugate (Conjugate 1) AUC [6, 8]: < 2% | Free SN-38 levels / systemic exposure to free SN-38 [6, 8]: generally low | Free SN-38 levels / systemic exposure to free SN-38 ([6]; patients dosed with Conjugate 1, plasma, listed as SN-28): low
